Source: ChEMBL document CHEMBL4622867, “An efficient synthetic approach toward a sporadic heterocyclic scaffold: 1,3-Oxathiol-2-ylidenes; alkaline phosphatase inhibition and molecular docking studies” (Bioorg Med Chem Lett, 2020)

Key:
[1] = organism: Bos taurus; test: Inhibition of calf intestinal alkaline phosphatase relative to control; parameters: concentration or dose not given beside the values; conditions: concentration not given here
[2] = test system: HeLa; test: Antiproliferative activity against human HeLa cells assessed as inhibition of cell growth by MTT assay relative to control; format: functional
[3] = organism: Bos taurus; test: Inhibition of bovine kidney TNAP relative to control; parameters: concentration or dose not given beside the values; conditions: concentration not given here
[4] = Inhibition of calf intestinal alkaline phosphatase; parameters: species or system Bos taurus
[5] = Inhibition of bovine kidney TNAP; parameters: species or system Bos taurus

SMILES | inhibition [1] | inhibition [3] | IC50 [4] | IC50 [5] | growth inhibition (GI) [2]
c1ccc([C@H]2CN3CCSC3=N2)cc1 [LEVAMISOLE] |  |  |  | 19200 nM | 
N[C@@H](Cc1ccccc1)C(=O)O [PHENYLALANINE] |  |  | 80200 nM |  | 
CCOC(=O)c1s/c(=N\C(=O)c2ccco2)oc1C | 33.1% | 45.7% |  |  | 42.11%
CCOC(=O)c1s/c(=N\C(=O)c2ccc([N+](=O)[O-])cc2)oc1C | 40.4% |  |  | 370 nM | 21.53%
CCOC(=O)c1s/c(=N\C(=O)CCCc2ccccc2)oc1C |  |  | 670 nM | 2410 nM | 3.96%
CCOC(=O)c1s/c(=N\C(=O)c2cc(OC)c(OC)c(OC)c2)oc1C | 36.5% | 47.1% |  |  | 58.07%
CCOC(=O)c1s/c(=N\C(=O)c2ccc(Cl)cc2)oc1C | 27.9% | 48.3% |  |  | 

Now from value to compound, other results behind:

inhibition [1] | inhibition [3] | IC50 [4] | IC50 [5] | SMILES | growth inhibition (GI) [2]
25.3% | 41.4% |  |  | CCOC(=O)c1s/c(=N\C(=O)Cc2ccccc2)oc1C | 4.15%
 |  | 1160 nM | 6510 nM | CCOC(=O)c1s/c(=N\C(=O)c2cccc(Br)c2)oc1C | 4.61%
28.9% | 30.9% |  |  | CCOC(=O)c1s/c(=N\C(=O)c2cccc(C)c2)oc1C | 33.07%
35.4% | 44.5% |  |  | CCOC(=O)c1s/c(=N\C(=O)c2ccccc2[N+](=O)[O-])oc1C | 2.42%
30.4% | 39.1% |  |  | CCOC(=O)c1s/c(=N\C(=O)c2ccccc2)oc1C | 69.03%
 | 45.3% | 2900 nM |  | CCOC(=O)c1s/c(=N\C(=O)c2cccc(Cl)c2)oc1C | 8.07%
19.5% | 28.8% |  |  | CCOC(=O)c1s/c(=N\C(=O)c2ccccc2C)oc1C | 9.8%
45.3% |  |  | 30400 nM | CCOC(=O)c1s/c(=N\C(=O)c2ccccc2Cl)oc1C | 51.53%
